From patent US20060063774A1, “Phosphodiesterase inhibitor compounds and nitric oxide donors” (priority 2004, published 2006)

Test system: human corpus cavernosum tissue
Experiment: In vitro comparative relaxation responses in phenylephrine-contracted human corpus cavernosum tissue strips (organ chamber, isometric tension)
Assay type: cell-based
Settings: 10 μM and 30 μM, cumulative additions; tissue contracted with phenylephrine 7×10^−7 M; −100% = tone after papaverine 10^−4 M; comparator equimolar dipyridamole; FIG. 40
From the text: FIG. 40 Graph of comparative in vitro relaxation effects of dipyridamole and Example 1 in phenylephrine induced contacted human corpus cavernosum tissue.
Human corpus cavernosum tissue biopsies were obtained at the time of penile prosthesis implantation from impotent men. The tissue was maintained in a chilled Krebs-bicarbonate solution prior to assay. The tissue was cut into strips of 0.3×0.3×1 cm and suspended in organ chambers for isometric tension measurement. Tissues were incrementally stretched until optimal isometrtic tension for contraction was obtained. Once this was achieved, the tissues were contracted with phenylephine (7×10^−7 M) and once a stable contraction was achieved, the tissues were exposed to either dipyridamole or Example 1 (10^−6 to 3×10^−5 M) by cumulative additions to the chamber. At the end of the experiment papaverine (10^−4 M) is added to obtain maximal relaxation. […] Data are expressed as the percent loss in tone from the phenylephrine-induced contraction (0%=phenylephrine contraction; −100%=tone after the administration of papaverine).

`CC(C)(CC(=O)OCCN(CCOC(=O)CC(C)(C)SN=O)c1nc(N2CCCCC2)c2nc(N(CCOC(=O)CC(C)(C)SN=O)CCOC(=O)CC(C)(C)SN=O)nc(N3CCCCC3)c2n1)SN=O` [Example 1, 2,6-bis(diethyl(3-methyl-3(nitrosothiol)butyric acid ester)amino)-4,8-dipiperidinopyrimido-[5,4-d]-pyrimidine] was tested, and the “relaxation of the phenylephrine-induced contraction (percent loss in tone), compared with dipyridamole” value was “more efficacious in relaxing the phenylephrine-induced contaction than is an equimolar dose of the phosphodiesterase inhibitor dipyridamole”.
